From patent US8629272B2, “Tricyclic pyrimidine derivatives as wnt antagonists” (Deutsches Krebsforschungszentrum, priority 2009, dated 2014)

Test system: human fibroblasts HS-68
Experiment: Cell line specific cytotoxicity, count of Hoechst labeled nuclei, normal cells HS68
Assay type: cell-based
Experimental: For examination of cell line-specific cytotoxicity, compounds were applied to human colorectal cancer cells (HCT116, denoted (1); SW480, denoted (2); Dld-1, denoted (3)) and human fibroblasts (HFF-1, denoted (4); HS-68, denoted (5)), cultured in Mc Coy's (1) and Dulbecco's Modified Eagles Medium (2-5), supplemented with 10% ((1)-(3)) and 20% ((4), (5)) fetal calf serum and 1% penicillin/streptomycin. Cells were grown in T75 flasks at 37° C., 5% CO2 and trypsinized when 60-80% confluent by adding 2 ml of 0.25% Trypsin-EDTA solution. Cells were then re-suspended into culture medium and approx. 750 cells, suspended in 45 microl medium, were plated into each well of a black 384-well plate for fluorescence imaging experiments. […] Compound incubation was terminated by (a) fixation and (b) permeabilisation of cells, followed by (c) fluorescence labeling of cell nuclei for cytometric quantification or by immunocytochemistry for microscopic evaluation of cell morphology. The three steps were performed by replacing the solution of the previous step in each well of a 384-well plate by (a) 30 microl PBS (phosphate buffered saline) containing 5% PFA (paraformaldehyde), (b) 30 microl PBS containing 0.2% TritonX-100 and (c) 10 microl PBS containing Hoechst-33342 for cytometry or Hoechst-33342, FITC (fluorescein isothiocyanate-) labeled α-tubulin antibodies and TRITC-(tetramethylrhodamine isothiocyanate-) labeled phalloidin antibodies for microscopy. Solutions were incubated for 15 (a,b) and 30 min (c) in the dark at room temperature. Cells were washed twice between each step with 30 microl PBS. The assay system was miniaturized and adapted to automated workflow using liquid-handling robotics.
Cell line-specific cytotoxicity was quantified by counting the number of Hoechst labeled nuclei per well of a 384-well plate using a plate cytometer. Data obtained with the cytometer was analysed using standard data analysis software. […]

Structure (SMILES) | Normalized cell count (HS68) (0.005 micoM) | Normalized cell count (HS68) (0.015 micoM) | Normalized cell count (HS68) (0.046 micoM) | Normalized cell count (HS68) (0.137 micoM) | Normalized cell count (HS68) (0.412 micoM) | Normalized cell count (HS68) (1.235 micoM) | Normalized cell count (HS68) (3.704 micoM) | Normalized cell count (HS68) (11.111 micoM) | Normalized cell count (HS68) (33.333 micoM) | Normalized cell count (HS68) (100.000 micoM)
CCOC(=O)C1=C(c2ccccc2)c2c(n(-c3ccccc3)c(=O)n3c(-c4cccc(OC)c4)nnc23)NC1C (stereo not drawn) [Example 16, 3-(3-Methoxy-phenyl)-7-methyl-4-oxo-5,9-diphenyl-4,5,6,7-tetrahydro-1,2,3a,5,6-pentaaza-cyclopenta[a]naphthalene-8-carboxylic acid ethyl ester] | 1 | 0.9904 | 1.038 | 1.056 | 1.111 | 1.051 | 1.175 | 1.144 | 0.8005 | 0.9046
CCOC(=O)C1=C(C)Nc2c(c3nnc(-c4cccc(OC)c4)n3c(=O)n2-c2ccccc2)C1c1ccccc1 (stereo not drawn) [Example 15, 3-(3-Methoxy-phenyl)-7-methyl-4-oxo-5,9-diphenyl-4,5,6,9-tetrahydro-1,2,3a,5,6-pentaaza-cyclopenta[a]naphthalene-8-carboxylic acid ethyl ester] | 1 | 0.9166 | 1.018 | 0.9967 | 0.9484 | 0.961 | 0.9772 | 0.9757 | 0.9593 | 0.9099
CCOC(=O)C1=C(c2ccccc2)c2c(n(-c3ccccc3)c(=O)n3c(-c4ccc(OC)cc4)nnc23)NC1C (stereo not drawn) [Example 18] | 1 | 0.9938 | 1.014 | 0.9488 | 0.9736 | 1.014 | 0.7952 | 0.5499 | 0.3651 | 0.4385
